Here are results for 1 substance from US11229398B2, “Electrode assemblies for neurostimulation treatment” (Cardionomic, Inc., priority 2016, dated 2022).

The test has as its system normal, non-HF ovine model. Nature of the test: Change in contractility (max(dP/dt) from pressure measurements as surrogate) and beat-by-beat correlation of right and left ventricle contractility after an injection. It counts as in vivo. The conditions noted are these: for Contractility % Increase: after the injection, max(dP/dt) used as surrogate for contractility. An excerpt:
The correlation was a heartbeat-by-heartbeat analysis. Pressure measurements, taken by a Millar catheter comprising a MEMS pressure sensor, in units of max(dP/dt) was used as a surrogate for contractility.
The first change, a dobutamine injection, provided a very high contractility increase greater than 500%. The average correlation between right ventricle contractility and left ventricle contractility was very good at 0.91, where 1.00 is a perfect correlation. Accordingly, if a subject is given a dobutamine injection, measuring changes to right ventricle contractility can provide accurate information about changes to left ventricle contractility. The first change was repeated three times.
The second change, calcium injection at 5 mL, provided a contractility increase of about 20%. […] The average correlation between right ventricle contractility and left ventricle contractility using a Millar (MEMS) sensor on a catheter was very good at 0.91. The average correlation between right ventricle contractility and left ventricle contractility using a fluid-filled lumen of a Swan-Ganz catheter in communication with an external pressure sensor was also very good at 0.87. Accordingly, under certain circumstances such as measurement of an animal (normal, non-HF ovine model) model, if a subject is given a calcium injection, measuring changes to right ventricle contractility with a MEMS sensor or a fluid filled lumen can provide accurate information about changes to left ventricle contractility.
The fourth change, neurostimulation as described herein, provided a contractility increase of about 28%. The correlation between right ventricle contractility and left ventricle contractility was very good at 0.90. Accordingly, if a subject is given neurostimulation, measuring changes to right ventricle contractility can provide accurate information about changes to left ventricle contractility. […] Thereafter, the left ventricle contractility tapered off logarithmically or exponentially, but the right ventricle contractility decreased very slowly. These differences help to show why the correlation between left ventricle contractility and right ventricle contractility are poorly correlated for calcium injections. The fourth change was not repeated.

Setting [1] is: first several beats after the injection.

For the substance calcium [Calcium Injection (5 mL)], the “Contractility % Increase” value is reported as around 20%. The “Contractility % Increase” value (listed as calcium injection) is reported as “about 20%”. Moreover, under setting [1], the left ventricle contractility entry is on record as “increased dramatically” and the right ventricle contractility result is given as “only slightly increased”.
